From patent publication US7456167B2, “Cyclopropyl fused indolobenzazepine HCV NS5B inhibitors” (Bristol-Myers Squibb Company, priority 2006, dated 2008)
pEC50, pIC50: −log10 of the molar value. Read-outs that look alike come from different tables or passages of the source.

Key:
[1] = biological target: T1, HCV NS5B RdRp genotype 1b (Hepatitis C virus genotype 1b, UniProt Q9WMX2); experiment: Modified HCV NS5B RdRp enzyme assay (preincubation protocol); format: biochemical
T1 construct: The protein was expressed with an 18 amino acid C-terminal truncation to enhance the solubility; made in house; host or cells: E. coli BL21(DE3)
Description: HCV NS5B RdRp cloning, expression, and purification. The cDNA encoding the NS5B protein of HCV, genotype 1b, was cloned into the pET21a expression vector. The protein was expressed with an 18 amino acid C-terminal truncation to enhance the solubility. The E. coli competent cell line BL21(DE3) was used for expression of the protein. Cultures were grown at 37° C. for ˜4 hours until the cultures reached an optical density of 2.0 at 600 nm. The cultures were cooled to 20° C. and induced with 1 mM IPTG. Fresh ampicillin was added to a final concentration of 50 μg/ml and the cells were grown overnight at 20° C.
Cell pellets (3 L) were lysed for purification to yield 15-24 mgs of purified NS5B. The lysis buffer consisted of 20 mM Tris-HCl, pH 7.4, 500 mM NaCl, 0.5% triton X-100, 1 mM DTT, 1 mM EDTA, 20% glycerol, 0.5 mg/ml lysozyme, 10 mM MgCl2, 15 ug/ml deoxyribonuclease I, and Complete TM protease inhibitor tablets (Roche). After addition of the lysis buffer, frozen cell pellets were resuspended using a tissue homogenizer. To reduce the viscosity of the sample, aliquots of the lysate were sonicated on ice using a microtip attached to a Branson sonicator. The sonicated lysate was centrifuged at 100,000×g for 1 hr at 4° C. and filtered through a 0.2 μm filter unit (Corning).
The protein was purified using three sequential chromatography steps: Heparin sepharose CL-6B, polyU sepharose 4B, and Hitrap SP sepharose (Pharmacia). The chromatography buffers were identical to the lysis buffer but contained no lysozyme, deoxyribonuclease I, MgCl2 or protease inhibitor and the NaCl concentration of the buffer was adjusted according to the requirements for charging the protein onto the column. Each column was eluted with a NaCl gradient which varied in length from 5-50 column volumes depending on the column type. After the final chromatography step, the resulting purity of the enzyme is >90% based on SDS-PAGE analysis. The enzyme was aliquoted and stored at −80° C.
Standard HCV NS5B RdRp enzyme assay. HCV RdRp genotype 1b assays were run in a final volume of 60 μl in 96 well plates (Costar 3912). The assay buffer is composed of 20 mM Hepes, pH 7.5, 2.5 mM KCl, 2.5 mM MgCl2, 1 mM DTT, 1.6 U RNAse inhibitor (Promega N2515), 0.1 mg/ml BSA (Promega R3961), and 2% glycerol. All compounds were serially diluted (3-fold) in DMSO and diluted further in water such that the final concentration of DMSO in the assay was 2%. HCV RdRp genotype 1b enzyme was used at a final concentration of 28 nM. A polyA template was used at 6 nM, and a biotinylated oligo-dT12 primer was used at 180 nM final concentration. Template was obtained commercially (Amersham 27-4110). Biotinylated primer was prepared by Sigma Genosys. 3H-UTP was used at 0.6 μCi (0.29 μM total UTP). Reactions were initiated by the addition of enzyme, incubated at 30° C. for 60 min, and stopped by adding 25 μl of 50 mM EDTA containing SPA beads (4 μg/μl, Amersham RPNQ 0007). Plates were read on a Packard Top Count NXT after >1 hr incubation at room temperature.
Modified HCV NS5B RdRp enzyme assay. A modified enzyme assay was performed essentially as described for the standard enzyme assay except for the following: The biotinylated oligo dT12 primer was precaptured on streptavidin-coated SPA beads by mixing primer and beads in assay buffer and incubating at room temperature for one hour. Unbound primer was removed after centrifugation. The primer-bound beads were resuspended in 20 mM Hepes buffer, pH 7.5 and used in the assay at final concentrations of 20 nM primer and 0.67 μg/μl beads. Order of addition in the assay: enzyme (14 nM) was added to diluted compound followed by the addition of a mixture of template (0.2 nM), 3H-UTP (0.6 μCi, 0.29 μM), and primer-bound beads, to initiate the reaction; concentrations given are final. Reactions were allowed to proceed for 4 hours at 30° C.
IC50 values for compounds were determined using seven different [I]. […]

HCV replicon cells = experiment: HCV replicon FRET assay; format: cell-based; details: Hepatitis C virus
From the text: FRET Assay Preparation. To perform the HCV FRET screening assay, 96-well cell culture plates were used. The FRET peptide (Anaspec, Inc.) (Taliani et al., Anal. Biochem. 1996, 240, 60-67) contains a fluorescence donor, EDANS, near one end of the peptide and an acceptor, DABCYL, near the other end. The fluorescence of the peptide is quenched by […] resonance energy transfer (RET) between the donor and the acceptor, but as the NS3 protease cleaves the peptide the products are released from RET quenching and the fluorescence of the donor becomes apparent. The assay reagent was made as follows: 5× cell Luciferase cell culture lysis reagent from Promega (#E153A) diluted to 1× with dH2O, NaCl added to 150 mM final, the FRET peptide diluted to 20 uM final from a 2 mM stock.
To prepare plates, HCV replicon cells, with or without a Renilla luciferase reporter gene, were trypsinized and placed into each well of a 96-well plate with titrated test compounds added in columns 3 through 12; columns 1 and 2 contained a control compound (HCV protease inhibitor), and the bottom row contained cells without compound. The plates were then placed in a CO2 incubator at 37° C.
Assays. Subsequent to addition of the test compounds described above (FRET Assay Preparation), at various times the plate was removed and Alamar blue solution (Trek Diagnostics, #00-100) was added per well as a measure of cellular toxicity. After reading in a Cytoflour 4000 instrument (PE Biosystems), plates were rinsed with PBS and then used for FRET assay by the addition of 30 ul of the FRET peptide assay reagent described above (FRET Assay Preparation) per well. The plate was then placed into the Cytoflour 4000 instrument which had been set to 340 excite/490 emission, automatic mode for 20 cycles and the plate read in a kinetic mode. Typically, the signal to noise using an endpoint analysis after the reads was at least three-fold. Alternatively, after Alamar blue reading, plates were rinsed with PBS, 50 ul of DMEM (high glucose) without phenol red was added and plates were then used for luciferase assay using the Promega Dual-Glo Luciferase Assay System.
Compound analysis was determined by quantification of the relative HCV replicon inhibition and the relative cytotoxicity values. To calculate cytoxicity values, the average Alamar Blue fluorescence signals from the control wells were set as 100% non-toxic. The individual signals in each of the compound test wells were then divided by the average control signal and multiplied by 100% to determine […]. To calculate the HCV replicon inhibition values, an average background value was obtained from the two wells containing the highest amount of HCV protease inhibitor at the end of the assay period. These numbers were similar to those obtained from naïve Huh-7 cells.
The background numbers were then subtracted from the average signal obtained from the control wells and this number was used as 100% activity. The individual signals in each of the compound test wells were then divided by the averaged control values after background subtraction and multiplied by 100% to determine percent activity. EC50 values for a protease inhibitor titration were calculated as the concentration which caused a 50% reduction in FRET or luciferase activity. The two numbers generated for the compound plate, percent cytoxicity and percent activity were used to determine compounds of interest for further analysis.

[2] = HCV NS5B RdRp genotype 1b, preincubation protocol, read-out: IC50
[3] = HCV replicon cells, FRET assay, read-out: EC50

T1 sequence (Q9WMX2 2420-2992): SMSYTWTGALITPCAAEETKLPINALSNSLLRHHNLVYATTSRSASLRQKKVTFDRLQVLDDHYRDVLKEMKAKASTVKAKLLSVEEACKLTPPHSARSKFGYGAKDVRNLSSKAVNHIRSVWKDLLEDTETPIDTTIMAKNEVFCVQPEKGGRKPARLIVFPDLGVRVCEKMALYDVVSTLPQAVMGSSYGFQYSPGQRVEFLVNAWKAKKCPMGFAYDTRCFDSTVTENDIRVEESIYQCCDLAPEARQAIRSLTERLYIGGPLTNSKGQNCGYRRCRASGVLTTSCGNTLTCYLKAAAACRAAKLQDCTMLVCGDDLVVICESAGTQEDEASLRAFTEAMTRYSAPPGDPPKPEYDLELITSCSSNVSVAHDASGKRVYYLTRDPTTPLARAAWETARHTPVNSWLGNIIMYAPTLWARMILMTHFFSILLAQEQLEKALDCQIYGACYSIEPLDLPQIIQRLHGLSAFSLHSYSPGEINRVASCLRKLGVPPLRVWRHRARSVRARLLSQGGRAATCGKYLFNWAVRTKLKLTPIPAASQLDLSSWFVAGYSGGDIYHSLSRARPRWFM

| Structure (SMILES) | pIC50 [1, 2] | pEC50 (HCV replicon cells; [3]) | pIC50 [1] | pEC50 (HCV replicon cells) |
| --- | --- | --- | --- | --- |
| COc1ccc2c(c1)C1CC1(S(=O)(=O)N1CCCC1)Cn1c-2c(C2CCCCC2)c2ccc(C(=O)NS(=O)(=O)C(C)C)cc21 (centres unmarked) | 6.00 to 7.70 | 6.00 to 7.70 | – | – |
| COc1ccc2c(c1)C1CC1(S(=O)(=O)N(C)CC(=O)N1CCOCC1)Cn1c-2c(C2CCCCC2)c2ccc(C(=O)O)cc21 (centres unmarked) | 6.00 to 7.70 | 6.00 to 7.70 | – | – |
| COc1ccc2c(c1)C1CC1(S(=O)(=O)N1C[C@@H](C)O[C@@H](C)C1)Cn1c-2c(C2CCCCC2)c2ccc(C(=O)NS(=O)(=O)N(C)C)cc21 (some centres unmarked) | 6.00 to 7.70 | 6.00 to 7.70 | – | – |
| COc1ccc2c(c1)C1CC1(S(=O)(=O)N1CCN3CCC1CC3)Cn1c-2c(C2CCCCC2)c2ccc(C(=O)NS(=O)(=O)N3CCOCC3)cc21 (centres unmarked) | 6.00 to 7.70 | 6.00 to 7.70 | – | – |
| COC(=O)c1ccc2c(C3CCCCC3)c3n(c2c1)CC1(S(=O)(=O)O)CC1c1cc(OC)ccc1-3 (centres unmarked) | 6.00 to 7.15 | < 6.00 | – | – |
| COc1ccc2c(c1)C1CC1(S(=O)(=O)N1C[C@@H](C)N(C)[C@@H](C)C1)Cn1c-2c(C2CCCCC2)c2ccc(C(=O)NS(=O)(=O)N3CCOCC3)cc21 (some centres unmarked) | 6.00 to 7.70 | 6.00 to 7.70 | – | – |
| COC[C@@H]1CN(S(=O)(=O)C23CC2c2cc(OC)ccc2-c2c(C4CCCCC4)c4ccc(C(=O)NS(=O)(=O)C(C)C)cc4n2C3)CCO1 (some centres unmarked) | 6.00 to 7.70 | 6.00 to 7.70 | – | – |
| COc1ccc2c(c1)CC(S(=O)(=O)CCN1CCN(C)CC1)Cn1c-2c(C2CCCCC2)c2ccc(C(=O)NS(=O)(=O)N(C)C)cc21 (centres unmarked) | 6.00 to 7.70 | 6.00 to 7.70 | – | – |
| COc1ccc2c(c1)C1CC1(S(=O)(=O)N1C3CC1CN(C)C3)Cn1c-2c(C2CCCCC2)c2ccc(C(=O)NS(=O)(=O)N3CCOCC3)cc21 (centres unmarked) | 6.00 to 7.70 | 6.00 to 7.70 | – | – |
| COc1ccc2c(c1)C1CC1(S(=O)(=O)N(C)CCN(C)C)Cn1c-2c(C2CCCCC2)c2ccc(C(=O)NS(=O)(=O)N(C)C)cc21 (centres unmarked) | 6.00 to 7.70 | 6.00 to 7.70 | – | – |
| COc1ccc2c(c1)C1CC1(S(=O)(=O)N1CCN3CCCC3C1)Cn1c-2c(C2CCCCC2)c2ccc(C(=O)NS(=O)(=O)C(C)C)cc21 (centres unmarked) | 6.00 to 7.70 | 6.00 to 7.70 | – | – |
| CCS(=O)(=O)C12CC1c1ccccc1-c1c(C3CCCCC3)c3ccc(C(=O)NS(=O)(=O)N(C)C)cc3n1C2 (centres unmarked) | 6.00 to 7.70 | 6.00 to 7.70 | – | – |
| COC[C@@H]1CN(S(=O)(=O)C23CC2c2cc(OC)ccc2-c2c(C4CCCCC4)c4ccc(C(=O)NS(=O)(=O)N5CCOCC5)cc4n2C3)CCO1 (some centres unmarked) | 6.00 to 7.70 | 6.00 to 7.70 | – | – |
| COc1ccc2c(c1)C1CC1(S(=O)(=O)N1CCC[C@H]3CN(Cc4ccccc4)C[C@H]31)Cn1c-2c(C2CCCCC2)c2ccc(C(=O)NS(=O)(=O)N3CCOCC3)cc21 (some centres unmarked) | 6.00 to 7.70 | 6.00 to 7.70 | – | – |
| CCN1CC2CC1CN2S(=O)(=O)C12CC1c1cc(OC)ccc1-c1c(C3CCCCC3)c3ccc(C(=O)NS(=O)(=O)N4CCOCC4)cc3n1C2 (centres unmarked) | 6.00 to 7.70 | 6.00 to 7.70 | – | – |
| COc1ccc2c(c1)C1CC1(S(=O)(=O)N1C3CC1CN(C)C3)Cn1c-2c(C2CCCCC2)c2ccc(C(=O)NS(=O)(=O)C(C)C)cc21 (centres unmarked) | 6.00 to 7.70 | 6.00 to 7.70 | – | – |
| COc1ccc2c(c1)C1CC1(S(=O)(=O)N1C[C@@H](C)N(C)[C@@H](C)C1)Cn1c-2c(C2CCCCC2)c2ccc(C(=O)NS(=O)(=O)N3CCN(C)CC3)cc21 (some centres unmarked) | 6.00 to 7.70 | 6.00 to 7.70 | – | – |
| COc1ccc2c(c1)C1CC1(S(=O)(=O)N1C3CCC1CC(C)(O)C3)Cn1c-2c(C2CCCCC2)c2ccc(C(=O)NS(=O)(=O)N(C)C)cc21 (centres unmarked) | – | – | 6.00 to 7.70 | 6.00 to 7.70 |
| CCN1CC2CC1CN2S(=O)(=O)C12CC1c1cc(OC)ccc1-c1c(C3CCCCC3)c3ccc(C(=O)NS(=O)(=O)C(C)C)cc3n1C2 (centres unmarked) | 6.00 to 7.70 | 6.00 to 7.70 | – | – |
| COc1ccc2c(c1)C1CC1(S(=O)(=O)N1CC(O)C1)Cn1c-2c(C2CCCCC2)c2ccc(C(=O)O)cc21 (centres unmarked) | 6.00 to 7.70 | 6.00 to 7.70 | – | – |
| COc1ccc2c(c1)C1CC1(S(=O)(=O)N1C3CCC1CN(C)C3)Cn1c-2c(C2CCCCC2)c2ccc(C(=O)O)cc21 (centres unmarked) | – | – | 6.00 to 7.70 | 6.00 to 7.70 |
| CCS(=O)(=O)C1Cc2ccccc2-c2c(C3CCCCC3)c3ccc(C(=O)O)cc3n2C1 (centres unmarked) | 6.00 to 7.70 | 6.00 to 7.70 | – | – |
